The record followed here is ChEMBL document CHEMBL1129046, “Structure-activity relationships of the antimalarial agent artemisinin. 4. Effect of substitution at C-3” (1996).

In assay [1] the test system is Plasmodium falciparum. Nature of the assay: Relative in vitro activity against drug-resistant Plasmodium falciparum D6. It counts as functional.
Assay [2] concerns Plasmodium falciparum. Nature of the assay: Relative in vitro activity against drug-resistant Plasmodium falciparum W-6. The format is functional.

On to `CCCC[C@H]1C(=O)O[C@@H]2O[C@@]3(CC)CC[C@H]4[C@H](C)CC[C@@H]1[C@@]24OO3`, for which the Relative activity in the assay with Plasmodium falciparum [1] turned out to be 184; in the assay with Plasmodium falciparum [2], 257.

Consider `CCCC[C@H]1C(=O)O[C@@H]2O[C@@]3(CCCc4ccc(Cl)cc4)CC[C@H]4[C@H](C)CC[C@@H]1[C@@]24OO3`, for which the Relative activity in the assay with Plasmodium falciparum [1] was 43; in the assay with Plasmodium falciparum [2] it was 53.

For `CCC[C@@]12CC[C@H]3[C@H](C)CC[C@H]4CC(=O)O[C@H](O1)[C@]43OO2`, the Relative activity in the assay with Plasmodium falciparum [1] was 2102; in the assay on Plasmodium falciparum [2] it was 673.

Regarding `CCOC(=O)CC[C@@]12CC[C@H]3[C@H](C)CC[C@H]4CC(=O)O[C@H](O1)[C@]43OO2`, the Relative activity in the assay with Plasmodium falciparum [1] and in the assay on Plasmodium falciparum [2] was 232 throughout.

On to `C[C@@H]1CC[C@H]2CC(=O)O[C@@H]3O[C@@]4(CCCCc5ccccc5)CC[C@@H]1[C@@]23OO4`, for which the Relative activity with Plasmodium falciparum [1] was 220; in the assay with Plasmodium falciparum [2] it was 281.

Take `CC[C@@]12CC[C@H]3[C@H](C)CC[C@H]4CC(=O)O[C@H](O1)[C@]43OO2`: the values for the Relative activity in the assay on Plasmodium falciparum [1] and in the assay on Plasmodium falciparum [2] were 88 and 112, respectively.

Take `CCCC[C@H]1C(=O)O[C@@H]2O[C@@]3(CCCC)CC[C@H]4[C@H](C)CC[C@@H]1[C@@]24OO3`: the Relative activity with Plasmodium falciparum [1] is 28; in the assay with Plasmodium falciparum [2], 33.

As for `CCCC[C@H]1C(=O)O[C@@H]2O[C@@]3(CCCCc4ccccc4)CC[C@H]4[C@H](C)CC[C@@H]1[C@@]24OO3`, the Relative activity came to 39 in the assay on Plasmodium falciparum [1] and 48 in the assay with Plasmodium falciparum [2].

As to `C[C@@H]1CC[C@H]2CC(=O)O[C@@H]3O[C@@]4(CCc5ccccc5)CC[C@@H]1[C@@]23OO4`, the Relative activity in the assay on Plasmodium falciparum [1] turned out to be 3; with Plasmodium falciparum [2] it was 1.

For the compound `CCCC[C@H]1C(=O)O[C@@H]2O[C@@]3(CCc4ccccc4)CC[C@H]4[C@H](C)CC[C@@H]1[C@@]24OO3`, the Relative activity in the assay with Plasmodium falciparum [1] and with Plasmodium falciparum [2] was 1 in each case.

`CCCC[C@H]1C(=O)O[C@@H]2O[C@@]3(CCC(=O)OCC)CC[C@H]4[C@H](C)CC[C@@H]1[C@@]24OO3`: the Relative activity is 1382 with Plasmodium falciparum [1] and 2285 with Plasmodium falciparum [2].

For `CC(C)C[C@@]12CC[C@H]3[C@H](C)CC[C@H]4CC(=O)O[C@H](O1)[C@]43OO2`, the Relative activity in the assay on Plasmodium falciparum [1] was 53; in the assay with Plasmodium falciparum [2], 45.

Consider `C[C@@H]1CC[C@H]2CC(=O)O[C@@H]3O[C@@]4(CCCc5ccc(Cl)cc5)CC[C@@H]1[C@@]23OO4`, for which the Relative activity was 114 in the assay on Plasmodium falciparum [1] and 127 in the assay on Plasmodium falciparum [2].

Turning to `CCCC[C@@]12CC[C@H]3[C@H](C)CC[C@H]4CC(=O)O[C@H](O1)[C@]43OO2`, the Relative activity in the assay on Plasmodium falciparum [1] is on record as 20; in the assay on Plasmodium falciparum [2], 18.

Consider `C[C@@H]1CC[C@H]2[C@@H](C)C(=O)O[C@@H]3O[C@@]4(C)CC[C@@H]1[C@]32OO4` [ARTEMISININ], for which the Relative activity in the assay with Plasmodium falciparum [1] and with Plasmodium falciparum [2] was 100 in each case.
